According to patent US20190105367A1, “ANTIMICROBIAL 4-OXOQUINOLIZINES” (Emergent Product Development Gaithersburg Inc., priority 2011, published 2019):
≈ marks a conversion by molar mass, not a printed value. Like-named read-outs stand apart in the source and are kept apart here.

Assays:
[1] = tested on: strains of A. baumannii and one strain of Acinetobacter sp.; assay: MIC with sub-inhibitory concentrations (0.25x MIC) of polymyxin B, panel of Acinetobacter strains (Example 4); format: cell-based
[2] = tested on: A. baumannii ATCC 19606; assay: MIC without and with sub-inhibitory polymyxin B (Example 4); format: cell-based, Acinetobacter baumannii; settings: for MIC without PB/MIC + PB: A. baumannii ATCC 19606
[3] = tested on: A. baumannii ATCC 19606; assay: Preliminary MBC without and with sub-inhibitory polymyxin B (Example 4); format: cell-based, Acinetobacter baumannii; settings: Acinetobacter baumannii
[4] = tested on: A. baumannii J2; assay: MIC without and with sub-inhibitory polymyxin B (Example 4); format: cell-based, Acinetobacter baumannii; settings: for MIC without PB/MIC + PB: A. baumannii J2; for MIC: Acinetobacter baumannii
[5] = tested on: A. baumannii J2; assay: Preliminary MBC without and with sub-inhibitory polymyxin B (Example 4); format: cell-based, Acinetobacter baumannii; settings: Acinetobacter baumannii, preliminary MBC
[6] = tested on: Acinetobacter sp. (H064200250); assay: MIC without and with sub-inhibitory polymyxin B (Example 4); format: cell-based; settings: for MIC: Acinetobacter
[7] = tested on: A. baumannii A329; assay: as above; format: cell-based, Acinetobacter baumannii; settings: +0.06 μg/ml PB, 2nd experiment
[8] = tested on: A. baumannii A329; assay: Preliminary MBC without and with sub-inhibitory polymyxin B (Example 4); format: cell-based, Acinetobacter baumannii; settings: Acinetobacter baumannii, A329, A. baumannii A329, +0.06 μg/ml PB, 2nd experiment, read-out: MBC
[9] = tested on: A. baumannii A390; assay: MIC without and with sub-inhibitory polymyxin B (Example 4); format: cell-based, Acinetobacter baumannii; settings: +0.06 μg/ml PB, 2nd experiment
[10] = tested on: A. baumannii A14; assay: Preliminary MBC without and with sub-inhibitory polymyxin B (Example 4); format: cell-based, Acinetobacter baumannii; settings: A. baumannii A14, +0.06 μg/ml PB, 2nd experiment
Outline: (§1)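 Plates were incubated for 18-20 hours at 37° C. MBC was taken as the lowest concentration giving colony growth ca. 90% below the positive control, typically where only single colonies or none appeared.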

[11] = tested on: A. baumannii A390; assay: as above; format: cell-based, Acinetobacter baumannii; settings: Acinetobacter baumannii, A390, A. baumannii A390, +0.06 μg/ml PB, 2nd experiment, read-out: MBC
Outline: as §1

[12] = tested on: A. baumannii A473; assay: as above; format: cell-based, Acinetobacter baumannii; settings: Acinetobacter baumannii, A473, A. baumannii A473, +0.06 μg/ml PB, 2nd experiment, read-out: MBC
Outline: as §1

[13] = tested on: A. baumannii NCTC 13301; assay: as above; format: cell-based, Acinetobacter baumannii; settings: Acinetobacter baumannii
Outline: as §1

[14] = tested on: A. baumannii A401; assay: MIC without and with sub-inhibitory polymyxin B (Example 4); format: cell-based, Acinetobacter baumannii; settings: for MIC: Acinetobacter baumannii
[15] = tested on: A. baumannii A401; assay: Preliminary MBC without and with sub-inhibitory polymyxin B (Example 4); format: cell-based, Acinetobacter baumannii; settings: Acinetobacter baumannii
[16] = tested on: A. baumannii A472; assay: MIC without and with sub-inhibitory polymyxin B (Example 4); format: cell-based, Acinetobacter baumannii; settings: for MIC: Acinetobacter baumannii
[17] = tested on: A. baumannii A472; assay: Preliminary MBC without and with sub-inhibitory polymyxin B (Example 4); format: cell-based, Acinetobacter baumannii; settings: Acinetobacter baumannii, preliminary MBC
[18] = tested on: A. baumannii A489; assay: MIC without and with sub-inhibitory polymyxin B (Example 4); format: cell-based, Acinetobacter baumannii; settings: for MIC without PB/MIC + PB: A. baumannii A489; for MIC: Acinetobacter baumannii
[19] = tested on: A. baumannii A489; assay: Preliminary MBC without and with sub-inhibitory polymyxin B (Example 4); format: cell-based, Acinetobacter baumannii; settings: Acinetobacter baumannii, preliminary MBC
[20] = tested on: A. baumannii NCTC 13301; assay: MIC without and with sub-inhibitory polymyxin B (Example 4); format: cell-based, Acinetobacter baumannii
[21] = tested on: A. baumannii NCTC 13301; assay: as above; format: cell-based, Acinetobacter baumannii; settings: +[…] PB, 2nd experiment
[22] = tested on: A. baumannii A14; assay: as above; format: cell-based, Acinetobacter baumannii; settings: 1st experiment
[23] = tested on: A. baumannii A14; assay: as above; format: cell-based, Acinetobacter baumannii; settings: 2nd experiment
[24] = tested on: A. baumannii A14; assay: Preliminary MBC without and with sub-inhibitory polymyxin B (Example 4); format: cell-based, Acinetobacter baumannii; settings: A. baumannii A14; +0.06 μg/ml polymyxin B; preliminary MBC; 1st experiment
[25] = A. baumannii A14, +0.06 μg/ml PB

`Cc1c(-c2ccc(CN)c(F)c2)ccn2c(=O)c(C(=O)O)cc(C3CC3)c12` [Compound 4, 8-(3-fluoro-4-aminomethyl-phenyl)-1-cyclopropyl-9-methyl-4-oxo-quinolizine-3-carboxylic acid] was tested, and the “Range ratios MIC without PB/MIC with PB Oct. 1, 2008 n = 8” value ([1]; 1st experiment) was 2-8, the “MIC range with PB (0.25x MIC) Oct. 1, 2008 n = 8” value ([1]; 1st experiment, […] polymyxin B, ATCC 19606, A329, A390 and A473 not taken) was 1 to 8 µg/mL and the “Range ratios MIC without PB/MIC with PB Oct. 14, 2008 n = 11” value ([1]; 2nd experiment) was 1-16. For the same molecule, the “MIC range with PB (0.25x MIC) Oct. 14, 2008 n = 11” value ([1]; 2nd experiment, 0.06 μg/ml polymyxin B, all strains except the ATCC strain) was 0.5 to 8 µg/mL, the “MIC without PB/MIC + PB” value ([2]; +0.06 μg/ml PB, 2nd experiment) was at least 16 and the “MIC without PB/MIC + PB” value ([2]; ratio, PB 0.06 μg/ml, 1st experiment) was 2. For the same molecule, the MIC ([2]; Acinetobacter baumannii, ATCC19606, read-out: MIC +0.06 μg/ml PB, A. baumannii ATCC 19606, +0.06 μg/ml polymyxin B, 1st experiment) was 0.125 µg/mL, the MBC ([3]; ATCC19606, A. baumannii ATCC 19606, +0.06 μg/ml PB, 2nd experiment, read-out: MBC) was at most 0.03 µg/mL and the MBC ([3]; ATCC19606, read-out: MBC +0.06 μg/ml PB, A. baumannii ATCC 19606, +0.06 μg/ml polymyxin B, 1st experiment) was 0.06 µg/mL. For the same molecule, the “MIC without PB/MIC + PB” value ([4]; +[…] PB, 2nd experiment) was 128, the “MIC without PB/MIC + PB” value ([4]; ratio, PB […], 1st experiment) was 4 and the MIC ([4]; J2, A. baumannii J2, +[…] PB, 2nd experiment, read-out: MIC) was 0.06 µg/mL (≈ 0.164 µM). The MIC ([4]; J2, read-out: MIC +[…] PB, A. baumannii J2, +[…] polymyxin B, 1st experiment) was 2 µg/mL (≈ 5.46 µM), the MBC ([5]; J2, A. baumannii J2, +[…] PB, 2nd experiment, read-out: MBC) was 0.06 µg/mL (≈ 0.164 µM) and the MBC ([5]; J2, read-out: MBC +[…] PB, A. baumannii J2, +[…] polymyxin B, 1st experiment) was 1 µg/mL (≈ 2.73 µM). The “MIC without PB/MIC + PB” value ([6]; Acinetobacter spp. H064200250 (OXA51), +[…] PB, 2nd experiment) was 64, the “MIC without PB/MIC + PB” value ([6]; Acinetobacter spp. H064200250, ratio, PB […], 1st experiment) was 4 and the MIC ([6]; Acinetobacter spp. H064200250 (OXA51), +[…] PB, 2nd experiment, read-out: MIC) was 0.5 µg/mL (≈ 1.36 µM). The MIC ([6]; read-out: MIC +[…] PB, Acinetobacter spp. H064200250, +[…] polymyxin B, 1st experiment) was 4 µg/mL (≈ 10.9 µM), the “MIC without PB/MIC + PB” value ([7]; A. baumannii A329) was 2 and the MIC ([7]; Acinetobacter baumannii, A329, A. baumannii A329, read-out: MIC) was 8 µg/mL (≈ 21.8 µM). The MBC [8] was 8 µg/mL (≈ 21.8 µM), the “MIC without PB/MIC + PB” value ([9]; A. baumannii A390) was 64 and the MIC ([9]; Acinetobacter baumannii, A390, A. baumannii A390, read-out: MIC) was 0.5 µg/mL (≈ 1.36 µM). The MBC [10] was 8 µg/mL (≈ 21.8 µM), the MBC [11] was 0.5 µg/mL (≈ 1.36 µM) and the MBC [12] was 0.25 µg/mL (≈ 0.682 µM). The MBC ([13]; NCTC13301, A. baumannii NCTC 13301, +[…] PB, preliminary MBC, 2nd experiment, read-out: MBC) was 0.25 µg/mL (≈ 0.682 µM), the MBC ([13]; NCTC13301, read-out: MBC +[…] PB) was 0.5 µg/mL (≈ 1.36 µM) and the “MIC without PB/MIC + PB” value ([14]; A baumannii A 401, ratio, PB 0.06 μg/ml, 1st experiment) was 4. It also gave an MIC ([14]; A401, A baumannii A 401, +0.06 μg/ml PB, 2nd experiment, read-out: MIC) of 0.5 µg/mL (≈ 1.36 µM), an MIC ([14]; A401, read-out: MIC +0.06 μg/ml PB, A baumannii A 401, +0.06 μg/ml polymyxin B, 1st experiment) of 4 µg/mL and an MBC ([15]; A401, A baumannii A 401, +0.06 μg/ml PB, 2nd experiment, read-out: MBC) of 0.5 µg/mL (≈ 1.36 µM). For the same molecule, the MBC ([15]; A401, read-out: MBC +0.06 μg/ml PB, A baumannii A 401, +0.06 μg/ml polymyxin B, 1st experiment) was 2 µg/mL, the “MIC without PB/MIC + PB” value ([16]; A. baumannii A472, ratio, PB […], 1st experiment) was 4 and the MIC ([16]; A472, A. baumannii A472, +[…] PB, 2nd experiment, read-out: MIC) was 0.125 µg/mL (≈ 0.341 µM). The MIC ([16]; A472, read-out: MIC +[…] PB, A. baumannii A472, +[…] polymyxin B, 1st experiment) was 1 µg/mL (≈ 2.73 µM), the MBC ([17]; A472, A. baumannii A472, +[…] PB, 2nd experiment, read-out: MBC) was 0.125 µg/mL (≈ 0.341 µM) and the MBC ([17]; A472, read-out: MBC +[…] PB, A. baumannii A472, +[…] polymyxin B, 1st experiment) was 1 µg/mL (≈ 2.73 µM). The “MIC without PB/MIC + PB” value ([18]; +[…] PB, 2nd experiment) was at least 512, the “MIC without PB/MIC + PB” value ([18]; ratio, PB […], 1st experiment) was 8 and the MIC ([18]; A489, A. baumannii A489, +[…] PB, 2nd experiment, read-out: MIC) was at most 0.03 µg/mL. The MIC ([18]; A489, read-out: MIC +[…] PB, A. baumannii A489, +[…] polymyxin B, 1st experiment) was 1 µg/mL (≈ 2.73 µM), the MBC ([19]; A489, A. baumannii A489, +[…] PB, 2nd experiment, read-out: MBC) was 0.06 µg/mL (≈ 0.164 µM) and the MBC ([19]; A489, read-out: MBC +[…] PB, A. baumannii A489, +[…] polymyxin B, 1st experiment) was 1 µg/mL (≈ 2.73 µM). The “MIC without PB/MIC + PB” value ([20]; A. baumannii NCTC 13301, ratio, PB […], 1st experiment) was 8, the MIC ([20]; Acinetobacter baumannii, NCTC13301, read-out: MIC +[…] PB) was 1 µg/mL (≈ 2.73 µM) and the “MIC without PB/MIC + PB” value ([21]; A. baumannii NCTC 13301) was 128. The MIC ([21]; Acinetobacter baumannii, NCTC13301, A. baumannii NCTC 13301, read-out: MIC) was 0.25 µg/mL (≈ 0.682 µM), the “MIC +0.06 μg/ml PB” value ([22]; +0.06 μg/ml polymyxin B) was 8 µg/mL and the “MIC without PB/MIC + PB” value ([22]; ratio, PB 0.06 μg/ml) was 4. For the same molecule, the MIC [23, 25] was 2 µg/mL (≈ 5.46 µM), the “MIC without PB/MIC + PB” value [23, 25] was 16 and the MIC ([23]; Acinetobacter baumannii, A14, A. baumannii A14, without PB, read-out: MIC) was 32 µg/mL (≈ 87.3 µM). The “MBC +0.06 μg/ml PB” value [24] was 8 µg/mL.
